pIC50, pKi: −log10 of the molar value.
Assays:
Mus musculus [1] = assay: Reduction in amyloid beta in mouse plasma at 50 mg/kg, po; format: ADME, organism-based; design: dose 50 mg/kg, route oral; scale not given: the % may be the effect or the level left; settings: in vivo
Mus musculus [2] = assay: Reduction in amyloid beta in mouse plasma at 25 mg/kg, po; format: ADME, organism-based; design: dose 25 mg/kg, route oral; scale not given: the % may be the effect or the level left; settings: in vivo
Mus musculus [3] = assay: Reduction in amyloid beta in mouse plasma at 10 mg/kg, po; format: ADME, organism-based; design: dose 10 mg/kg, route oral; scale not given: the % may be the effect or the level left; settings: in vivo
Beta-secretase 1 [4] = molecular target: T1, Beta-secretase 1 (Homo sapiens, UniProt P56817); assay: Inhibition of BACE1 assessed as amyloid beta (1-40) production
T1 sequence (P56817 whole entry): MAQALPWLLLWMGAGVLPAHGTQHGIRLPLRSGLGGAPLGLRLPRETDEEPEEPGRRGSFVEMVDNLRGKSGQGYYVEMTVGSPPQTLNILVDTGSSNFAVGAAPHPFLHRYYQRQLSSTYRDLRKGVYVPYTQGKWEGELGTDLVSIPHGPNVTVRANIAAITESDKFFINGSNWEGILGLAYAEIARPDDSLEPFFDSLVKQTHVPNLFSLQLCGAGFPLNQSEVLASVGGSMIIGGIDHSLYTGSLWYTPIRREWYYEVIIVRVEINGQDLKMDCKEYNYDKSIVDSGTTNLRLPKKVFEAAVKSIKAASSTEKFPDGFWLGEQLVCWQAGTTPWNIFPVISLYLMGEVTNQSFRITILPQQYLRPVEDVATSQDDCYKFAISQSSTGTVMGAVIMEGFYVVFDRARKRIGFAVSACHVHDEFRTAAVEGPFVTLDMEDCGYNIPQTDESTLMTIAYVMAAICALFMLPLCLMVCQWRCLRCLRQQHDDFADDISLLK

Beta-secretase 1 [5] = molecular target: T1, Beta-secretase 1

Activity (Mus musculus [1]) | Activity (Mus musculus [2]) | Activity (Mus musculus [3]) | pIC50 (Beta-secretase 1 [4]) | pKi (Beta-secretase 1 [5]) | SMILES
23% | 22% | 13% | – | – | NC1=Nc2ccc3cc2CN1[C@H](C1CCCCC1)CCC(=O)N(C1CCCCC1)CCc1cccc(c1)O3
– | – | – | 7.52 | 8.10 | NC1=Nc2cc(F)c3cc2CN1[C@H](C1CCCCC1)CCC(=O)N(C1CCCCC1)CCc1cccc(c1)O3
– | – | – | 8.15 | 8.30 | NC1=Nc2cnc3cc2CN1[C@H](C1CCCCC1)CCC(=O)N(C1CCCCC1)CCc1cccc(c1)O3

SMILES | Activity (Mus musculus [1]) | Activity (Mus musculus [2]) | Activity (Mus musculus [3]) | pIC50 (Beta-secretase 1 [4]) | pKi (Beta-secretase 1 [5])
CC(C)[C@@H]1CCC(=O)N(C2CCOCC2)CCc2cccc(c2)Oc2ccc3c(c2)CN1C(N)=N3 | – | – | – | 6.16 | –

Source: ChEMBL document CHEMBL1157115, “Macrocyclic BACE inhibitors: Optimization of a micromolar hit to nanomolar leads” (Bioorg Med Chem Lett, 2010)
